Laboratory results from publication PMC12365235, “Molecular mechanisms of thiazide-like diuretics-mediated inhibition of the human Na-Cl cotransporter” (Nature Communications, 2025).

System: hNCC(V231M)
Experiment: 125I- uptake assay, hNCC(V231M) variant
Assay type: cell-based, human
Settings: V231M polymorphism
Procedure: HEK293S cell lines, cultured in 293 Freestyle medium (Life Technologies; plus 10% fetal bovine serum), stably expressing hNCC and its variants were generated following published protocols. Cells were transfected using Lipofectamine 3000 (Invitrogen) with a pSBbi-RP-based plasmid containing hNCC or its variants and the SB100X vector. Puromycin (2 μg/mL; Gemini Bio-Products) was used for selection of stable cell lines.
To prepare for the uptake experiment, cells were plated at 0.5 × 10^6 cells/well in 24-well plates one day in advance. To activate NCC, cells were treated with a chloride-free hypotonic solution composed of 67.5 mM sodium-, 2.5 mM potassium-, 0.25 mM magnesium-, and 0.25 mM calcium-gluconate, as well as 7.5 mM HEPES pH 7.4 (buffered using Tris) at 37 °C for 10 min[72]. After the activation step, the experiments were carried out at room temperature. Ten minutes before the start of ^125I^− uptake, 70 μM Bumetanide (Thermo Scientific Chemicals) and 100 μM 4,4′-diisothiocyanatostilbene-2,2′-disulfonic acid (DIDS; Sigma) were added to suppress background iodide uptake activity. Indicated thiazide diuretics were also added to the indicated concentrations 10 min before the start of ^125I^− uptake. The original buffer was switched to an uptake buffer composed of 135 mM Na-gluconate, 5 mM K-gluconate, 1 mM Mg-gluconate, 1 mM Ca-gluconate, 70 μM bumetanide, 100 μM DIDS, 1 mM NaI, 0.25 μCi/ml Na^125I (American Radiolabeled Chemicals, Inc.), and 15 mM HEPES pH 7.4 (buffered using Tris), in the presence or absence of thiazide diuretics to initiate ^125I^− uptake. The ^125I^− uptake process lasted 1 h and was stopped by two rapid washes using ice-cold 110 mM MgCl2. Cells lysed using 1% sodium dodecyl sulfate (SDS) were analyzed by scintillation counting.
To calculate the fold change of the half-maximal inhibitory concentration (IC50) between hNCC(WT) and different hNCC variants, individual dose-response curves were normalized first using the smallest mean and the value of the lowest concentration as 0% and 100%, respectively. The normalized data were then fitted using the “EC50 shift” nonlinear regression in GraphPad Prism 10 with the shared EC50Control assigned to be the IC50 of hNCC(WT). The following constraints were used in the EC50 shift analysis. The EC50Control was set to be shared across all curves under analysis and constrained to be greater than 0. The EC50Ratio was constrained to be greater than 0. The bottom, top, and HillSlope were constrained to be 0, 100, and −1, respectively. For Fig. 1f, g and Supplementary Fig. 2d, GraphPad Prism 10 was used to perform curve fitting and IC50 calculation for normalized data using y = 100/(1 + (x/IC50)).

Q: How did the “sensitivity relative to hNCC(WT) (fold lower)” value turn out when `NS(=O)(=O)c1cc2c(cc1Cl)NCNS2(=O)=O` [hydrochlorothiazide] was run?
A: nearly as sensitive as the wild-type
